Measurements as given in patent publication US11702422B2, “Imidazopyridazines as modulators of IL-17” (Janssen Pharmaceutica NV, priority 2020, dated 2023).

What was measured:
[1] = biological target: IL-17A(FLAG-Tagged): IL-17RA(His-Tagged) (Homo sapiens, UniProt Q16552, K93Q); test: IL-17A(FLAG-Tagged): IL-17RA(His-Tagged) Binding Disruption Eu-HTRF Assay; conditions: IL-17A/IL-17RA binding disruption, simple average if tested more than once
Outline: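 IC50 comes from a one-site competition fit of the HTRF 665/620 nm ratio. Compound dilutions (2-fold, 22 points) were held 1 h rt with FLAG-tagged IL-17A dimer, then His-tagged IL-17RA plus Eu-cryptate anti-FLAG and D2 anti-His antibodies were added for 2 h rt.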

[2] = system: IL-17A-induced G-CSF production in human normal keratinocyte (NHK); test: NHK Assay: IL-17A-induced G-CSF production in human normal keratinocytes; type: cell-based; conditions: adult normal human keratinocytes, IL-17A 5 ng/mL, 24 h, simple average if tested more than once
Outline: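 G-CSF released by primary adult human keratinocytes after 24 h at 37° C was quantified by HTRF via standard curve to give IC50. Stimulus was 5 ng/mL IL-17A pre-mixed 1 h at rt with compound dilutions, in 5% FBS and 0.2% DMSO. Cell viability was assessed in parallel with CellTiter-Glo.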

Sequence of UniProt Q16552 (Q16552 with tags, fused parts or gaps K93Q): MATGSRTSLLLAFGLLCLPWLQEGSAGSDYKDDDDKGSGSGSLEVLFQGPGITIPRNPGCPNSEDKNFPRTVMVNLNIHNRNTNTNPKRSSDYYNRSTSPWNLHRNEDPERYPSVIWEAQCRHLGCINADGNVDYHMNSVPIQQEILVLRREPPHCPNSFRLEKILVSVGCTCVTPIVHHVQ

| SMILES | IC50 [1] | IC50 [2] | IC50 ([2]; Homo sapiens, Keratinocyte) |
| --- | --- | --- | --- |
| Cc1nonc1C(=O)N[C@H](c1cn2ncc(C(CC#N)NC(=O)CC3CC(F)(F)C3)cc2n1)C1CCC(F)(F)CC1 (single isomer, unassigned) [Example 446, N—((S)-(7-((R*)-2-Cyano-1-(2-(3,3-difluorocyclobutyl)acetamido)ethyl)imidazo[1,2-b]pyridazin-2-yl)(4,4-difluorocyclohexyl)methyl)-4-methyl-1,2,5-oxadiazole-3-carboxamide] | 710 nM | 8800 nM | – |
| CC(C)n1nccc1C(=O)N[C@H](c1cn2ncc(C(CC#N)NC(=O)CC3CC(F)(F)C3)cc2n1)C1CCC(F)(F)CC1 (single isomer, unassigned) [Example 447, N—((S)-(7-((R*)-2-Cyano-1-(2-(3,3-difluorocyclobutyl)acetamido)ethyl)imidazo[1,2-b]pyridazin-2-yl)(4,4-difluorocyclohexyl)methyl)-1-isopropyl-1H-pyrazole-5-carboxamide] | 300 nM | 1100 nM | – |
| N#CC1([C@@H](NC(=O)C[C@H]2CC2(F)F)c2cnn3cc([C@@H](NC(=O)c4nonc4C4CC4)C4CCC(F)(F)CC4)nc3c2)CCC1 (single isomer, unassigned) [Example 448] | 35 nM | – | 12 nM |
| O=C(CCC(F)(F)F)NC(c1cnn2cc([C@@H](NC(=O)c3nnsc3C3CC3)C3CCC(F)(F)CC3)nc2c1)C1CC1 (single isomer, unassigned) [Example 466, 5-Cyclopropyl-N—((S)-(7-((R*)-cyclopropyl(4,4,4-trifluorobutanamido)methyl)imidazo[1,2-b]pyridazin-2-yl)(4,4-difluorocyclohexyl)methyl)-1,2,3-thiadiazole-4-carboxamide] | 34 nM | – | 210 nM |
| Cc1nsnc1C(=O)N[C@H](c1cn2ncc(C(NC(=O)CCC(F)(F)F)C3CC3)cc2n1)C1CCC(F)(F)CC1 (single isomer, unassigned) [Example 467, N—((S)-(7-((R*)-Cyclopropyl(4,4,4-trifluorobutanamido)methyl)imidazo[1,2-b]pyridazin-2-yl)(4,4-difluorocyclohexyl)methyl)-4-methyl-1,2,5-thiadiazole-3-carboxamide] | 58 nM | – | 360 nM |
| CC(C)n1nccc1C(=O)N[C@H](c1cn2ncc(C(NC(=O)CCC(F)(F)F)C3CCC3)cc2n1)C1CCC(F)(F)CC1 (single isomer, unassigned) [Example 490, N—((S)-(7-((R*)-Cyclobutyl(4,4,4-trifluorobutanamido)methyl)imidazo[1,2-b]pyridazin-2-yl)(4,4-difluorocyclohexyl)methyl)-1-isopropyl-1H-pyrazole-5-carboxamide] | 150 nM | – | 67 nM |
| Cc1nonc1C(=O)N[C@H](c1cn2ncc(C(NC(=O)CCC(F)(F)F)C3CCC3)cc2n1)C1CCC(F)(F)CC1 (single isomer, unassigned) [Example 491, N—((S)-(7-((R*)-Cyclobutyl(4,4,4-trifluorobutanamido)methyl)imidazo[1,2-b]pyridazin-2-yl)(4,4-difluorocyclohexyl)methyl)-4-methyl-1,2,5-oxadiazole-3-carboxamide] | 39 nM | – | 85 nM |
| [2H]C([2H])([2H])n1nccc1C(=O)N[C@H](c1cn2ncc(C(NC(=O)CCC(F)(F)F)C3CCC3)cc2n1)C1CCC(F)(F)CC1 (single isomer, unassigned) [Example 492, N—((S)-(7-((R*)-Cyclobutyl(4,4,4-trifluorobutanamido)methyl)imidazo[1,2-b]pyridazin-2-yl)(4,4-difluorocyclohexyl)methyl)-1-(methyl-d3)-1H-pyrazole-5-carboxamide] | 65 nM | – | 95 nM |
| Cc1nonc1C(=O)N[C@H](c1cn2ncc(C(NC(=O)CC3CC(F)(F)C3)C3CCC3)cc2n1)C1CCC(F)(F)CC1 (single isomer, unassigned) [Example 493, N—((S)-(7-((R*)-Cyclobutyl(2-(3,3-difluorocyclobutyl)acetamido)methyl)imidazo[1,2-b]pyridazin-2-yl)(4,4-difluorocyclohexyl)methyl)-4-methyl-1,2,5-oxadiazole-3-carboxamide] | 79 nM | 120 nM | – |
| Cc1nonc1C(=O)N[C@H](c1cn2ncc(C(NC(=O)CC3CC(F)(F)C3)C3CCC3)cc2n1)C1CCC(F)(F)CC1 (single isomer, unassigned) [Example 494, N—((S)-(7-((S*)-Cyclobutyl(2-(3,3-difluorocyclobutyl)acetamido)methyl)imidazo[1,2-b]pyridazin-2-yl)(4,4-difluorocyclohexyl)methyl)-4-methyl-1,2,5-oxadiazole-3-carboxamide] | 1000 nM | > 20000 nM | – |
| [2H]C([2H])([2H])C([2H])([2H])n1nccc1C(=O)N[C@H](c1cn2ncc(C(NC(=O)CC3CC(F)(F)C3)C3CCC3)cc2n1)C1CCC(F)(F)CC1 (single isomer, unassigned) [Example 495, N—((S)-(7-((R*)-Cyclobutyl(2-(3,3-difluorocyclobutyl)acetamido)methyl)imidazo[1,2-b]pyridazin-2-yl)(4,4-difluorocyclohexyl)methyl)-1-(ethyl-d5)-1H-pyrazole-5-carboxamide] | 40 nM | 300 nM | – |
| [2H]C([2H])([2H])C([2H])([2H])n1nccc1C(=O)N[C@H](c1cn2ncc(C(NC(=O)CC3CC(F)(F)C3)C3CCC3)cc2n1)C1CCC(F)(F)CC1 (single isomer, unassigned) [Example 496, N—((S)-(7-((S*)-Cyclobutyl(2-(3,3-difluorocyclobutyl)acetamido)methyl)imidazo[1,2-b]pyridazin-2-yl)(4,4-difluorocyclohexyl)methyl)-1-(ethyl-d5)-1H-pyrazole-5-carboxamide] | 690 nM | 10000 nM | – |
| [2H]C([2H])([2H])n1nccc1C(=O)N[C@H](c1cn2ncc(C(NC(=O)CC3CC(F)(F)C3)C3CCC3)cc2n1)C1CCC(F)(F)CC1 (single isomer, unassigned) [Example 497, N—((S)-(7-((R*)-Cyclobutyl(2-(3,3-difluorocyclobutyl)acetamido)methyl)imidazo[1,2-b]pyridazin-2-yl)(4,4-difluorocyclohexyl)methyl)-1-(methyl-d3)-1H-pyrazole-5-carboxamide] | 91 nM | – | 150 nM |
| CC(C)(O)c1nonc1C(=O)N[C@H](c1cn2ncc(C(NC(=O)CC3CC(F)(F)C3)C3CCC3)cc2n1)C1CCC(F)(F)CC1 (single isomer, unassigned) [Example 499, N—((S)-(7-((R*)-Cyclobutyl(2-(3,3-difluorocyclobutyl)acetamido)methyl)imidazo[1,2-b]pyridazin-2-yl)(4,4-difluorocyclohexyl)methyl)-4-(2-hydroxypropan-2-yl)-1,2,5-oxadiazole-3-carboxamide] | 180 nM | – | 160 nM |
| Cc1nonc1C(=O)N[C@H](c1cn2ncc(C(NC(=O)CCC(F)(F)F)C(C)C)cc2n1)C1CCC(F)(F)CC1 (single isomer, unassigned) [Example 504, N—((S)-(4,4-Difluorocyclohexyl)(7-((S*)-2-methyl-1-(4,4,4-trifluorobutanamido)propyl)imidazo[1,2-b]pyridazin-2-yl)methyl)-4-methyl-1,2,5-oxadiazole-3-carboxamide] | 46 nM | 93 nM | – |
| Cc1nonc1C(=O)N[C@H](c1cn2ncc(C(C)NC(=O)CCC(F)(F)F)cc2n1)C1CCC(F)(F)CC1 (single isomer, unassigned) [Example 505, N—((S)-(4,4-Difluorocyclohexyl)(7-((R*)-1-(4,4,4-trifluorobutanamido)ethyl)imidazo[1,2-b]pyridazin-2-yl)methyl)-4-methyl-1,2,5-oxadiazole-3-carboxamide] | 5400 nM | > 20000 nM | – |
| [2H]C([2H])([2H])C([2H])([2H])n1nccc1C(=O)N[C@H](c1cn2ncc(C(CC)NC(=O)CC3CC(F)(F)C3)cc2n1)C1CCC(F)(F)CC1 (single isomer, unassigned) [Example 506, N—((S)-(7-((R*)-1-(2-(3,3-Difluorocyclobutyl)acetamido)propyl)imidazo[1,2-b]pyridazin-2-yl)(4,4-difluorocyclohexyl)methyl)-1-(ethyl-d5)-1H-pyrazole-5-carboxamide] | 200 nM | – | 130 nM |
| CCC(NC(=O)CC1CC(F)(F)C1)c1cnn2cc([C@@H](NC(=O)c3nonc3C3CC3)C3CCC(F)(F)CC3)nc2c1 (single isomer, unassigned) [Example 507, 4-Cyclopropyl-N—((S)-(7-((R*)-1-(2-(3,3-difluorocyclobutyl)acetamido)propyl)imidazo[1,2-b]pyridazin-2-yl)(4,4-difluorocyclohexyl)methyl)-1,2,5-oxadiazole-3-carboxamide] | 56 nM | – | 42 nM |
| CCC(NC(=O)CC1CC(F)(F)C1)c1cnn2cc([C@@H](NC(=O)c3nonc3C)C3CCC(F)(F)CC3)nc2c1 (single isomer, unassigned) [Example 509, N—((S)-(7-((S*)-1-(2-(3,3-Difluorocyclobutyl)acetamido)propyl)imidazo[1,2-b]pyridazin-2-yl)(4,4-difluorocyclohexyl)methyl)-4-methyl-1,2,5-oxadiazole-3-carboxamide] | 1900 nM | – | > 20000 nM |
| Cc1nonc1C(=O)N[C@H](c1cn2ncc(C(C)NC(=O)CCC(F)(F)F)cc2n1)C1CCC(F)(F)CC1 (single isomer, unassigned) [Example 510, N—((S)-(4,4-Difluorocyclohexyl)(7-((S*)-1-(4,4,4-trifluorobutanamido)ethyl)imidazo[1,2-b]pyridazin-2-yl)methyl)-4-methyl-1,2,5-oxadiazole-3-carboxamide] | 83 nM | 440 nM | – |
